The source of these data is patent US6559158B1, “Use of methylnaltrexone and related compounds to treat chronic opioid use side affects” (UR Labs, Inc., priority 1997, dated 2003).

Series [1] deals with chronic methadone subjects. As to the kind of experiment: Example 2: side effects, vital signs and opioid withdrawal. It is filed as in vivo, human. The protocol:
Vital signs were obtained at 0, 5, 10, 30, 60, 90 and 120 min after each test drug administration. Illicit drug use was monitored by random urine drug screens.
To evaluate possible opioid withdrawal with methylnaltrexone, before and 10 min after the completion of test drug administration, subjects were asked to complete an objective checklist of withdrawal symptoms modified from Fraser et al. (J. Pharmacol Exp. Ther., 133:371-387 (1961)) and Jasinski (Drug Addiction J., 197-258 (1977)). Items rated (none, mild, moderate, severe) were yawning, lacrimation (excessive tearing), rhinorrhea (nasal discharge), perspiration, tremor, piloerection (goosebumps), and restlessness. The ratings for individual items were translated to a 0-3 scale and summed to give a total symptom score. The total scores before and after test drug administrations were compared between the groups. Potential opioid withdrawal symptoms were also monitored by an investigator throughout the study.

In another series the test system is normal volunteers. The settings on record: 0.45 mg/kg iv, cited from earlier work.

As to `C[N@+]1(CC2CC2)CC[C@]23c4c5ccc(O)c4O[C@H]2C(=O)CC[C@@]3(O)[C@H]1C5` [methylnaltrexone, N-methylnaltrexone bromide], the “abdominal cramping during and immediately after injection” value in series [1] (all subjects of methylnaltrexone group, iv) is given as “mild to moderate abdominal cramping”. In addition, the “change in blood pressure or heart rate from baseline” value in series [1] (study drug infusion) was “No subject demonstrated any clinically significant change”. In addition, in the series with normal volunteers (healthy volunteers, acute single doses), the “effect on opioid-induced delay in oral-cecal transit time” value is on record as “effectively prevented opioid-induced delay in oral-cecal transit time”. In addition, the effect on analgesia entry with normal volunteers (healthy volunteers) was “without affecting analgesia”. Moreover, the Laxation response entry with normal volunteers (normal opioid naive subjects) was “without any laxation response”.
